According to patent US8067042B1 (Mutual Pharmaceutical Company, Inc., priority 2007, dated 2011):

Assays:
CYP1A2 [1] = biological target: T1, CYP1A2 (Homo sapiens, UniProt P05177); assay type: in vitro ADME; settings: 50 μM megestrol acetate, microsomes
T1 sequence (P05177 1-516): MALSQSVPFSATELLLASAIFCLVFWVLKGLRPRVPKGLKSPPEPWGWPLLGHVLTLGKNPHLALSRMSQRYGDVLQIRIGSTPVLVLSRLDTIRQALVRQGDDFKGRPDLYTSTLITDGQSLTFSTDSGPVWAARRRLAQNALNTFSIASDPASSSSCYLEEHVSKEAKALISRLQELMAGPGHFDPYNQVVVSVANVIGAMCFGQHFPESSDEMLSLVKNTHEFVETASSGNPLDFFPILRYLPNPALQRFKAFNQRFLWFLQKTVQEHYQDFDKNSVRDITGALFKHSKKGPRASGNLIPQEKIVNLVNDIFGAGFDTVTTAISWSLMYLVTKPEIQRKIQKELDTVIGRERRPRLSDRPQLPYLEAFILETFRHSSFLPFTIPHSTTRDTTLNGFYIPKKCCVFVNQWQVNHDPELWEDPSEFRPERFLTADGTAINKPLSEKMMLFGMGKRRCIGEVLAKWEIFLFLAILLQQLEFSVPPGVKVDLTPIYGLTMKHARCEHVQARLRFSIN

CYP2D6 = CYP2D6 (Homo sapiens, UniProt P10635)
CYP2D6, sequence (P10635 whole entry): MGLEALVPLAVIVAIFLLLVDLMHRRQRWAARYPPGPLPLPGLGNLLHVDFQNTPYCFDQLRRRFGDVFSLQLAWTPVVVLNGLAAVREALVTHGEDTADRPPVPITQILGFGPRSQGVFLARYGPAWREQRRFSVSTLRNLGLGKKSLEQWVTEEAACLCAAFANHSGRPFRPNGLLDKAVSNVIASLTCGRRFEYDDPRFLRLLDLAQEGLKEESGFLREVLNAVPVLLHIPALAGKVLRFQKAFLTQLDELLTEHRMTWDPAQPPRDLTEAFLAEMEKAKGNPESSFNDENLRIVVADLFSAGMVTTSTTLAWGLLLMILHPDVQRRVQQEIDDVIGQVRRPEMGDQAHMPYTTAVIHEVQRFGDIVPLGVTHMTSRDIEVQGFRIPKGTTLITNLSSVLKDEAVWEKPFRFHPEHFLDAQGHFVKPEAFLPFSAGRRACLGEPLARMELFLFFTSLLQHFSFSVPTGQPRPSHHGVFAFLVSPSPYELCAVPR
Protocol: (§1) The stock solutions were added to incubation mixtures to obtain the final concentrations of 5 and 50 μM, each containing 1% acetonitrile.
(§2) After a 5 minute preincubation, nicotinamide adenine dinucleotide phosphate (NADPH) regenerating system (NRS; 1.7 mg/mL β-NADP, 7.8 mg/mL glucose-6-phosphate, and 6 units/mL glucose-6-phosphate dehydrogenase in 2% sodium bicarbonate solution) was added to initiate the reaction. The final incubation volume was 0.5 mL. Incubations were continued for 60 minutes.
(§3) All incubations were conducted at 37±1° C. in a shaking water bath. All incubations were carried out in triplicates.
(§4) After a 5-minute preincubation, 2% sodium bicarbonate solution was added to the incubation mixtures. The final incubation volume was 0.5 mL. Incubations were continued for 60 minutes.
(§5) Incubation reactions, including the matrix controls and metabolic negative controls, were terminated by adding 0.5 mL methanol.
(§6) The samples were analyzed on a Supelcosil LC-18 column (3μ, 120 Å, 3.0×100 mm).

CYP2C19 [2] = biological target: T2, CYP2C19 (Homo sapiens, UniProt P33261)
T2 sequence (P33261 whole entry): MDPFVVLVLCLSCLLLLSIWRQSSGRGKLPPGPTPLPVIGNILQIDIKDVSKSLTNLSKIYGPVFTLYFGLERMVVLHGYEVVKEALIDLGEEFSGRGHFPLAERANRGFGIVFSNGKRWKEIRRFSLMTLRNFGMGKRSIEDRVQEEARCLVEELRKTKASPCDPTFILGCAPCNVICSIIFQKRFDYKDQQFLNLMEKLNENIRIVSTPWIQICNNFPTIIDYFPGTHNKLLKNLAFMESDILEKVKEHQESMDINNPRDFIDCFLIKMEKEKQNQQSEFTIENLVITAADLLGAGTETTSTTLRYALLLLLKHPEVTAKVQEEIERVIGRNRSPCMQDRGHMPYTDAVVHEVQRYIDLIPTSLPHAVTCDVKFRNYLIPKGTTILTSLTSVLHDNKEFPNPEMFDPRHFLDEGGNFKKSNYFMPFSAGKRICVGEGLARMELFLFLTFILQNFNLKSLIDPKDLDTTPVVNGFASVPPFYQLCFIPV
Protocol: as §1
(§7) Microsomes were prepared by differential centrifugation of liver homogenates pooled from at least ten human donors.
as §2, §3, §4, §5, §6

CYP2C19 [3] = biological target: T2, CYP2C19; assay type: in vitro ADME; parameters: purchased BD Biosciences Discovery Labware, Woburn, Mass; host or cells: baculovirus-infected insect cells; settings: 50 μM megestrol acetate, 20 pmol CYP2C19
CYP3A4 = CYP3A4 (Homo sapiens, UniProt P08684); assay type: in vitro ADME; parameters: purchased BD Biosciences Discovery Labware, Woburn, Mass; host or cells: baculovirus-infected insect cells; settings: 50 μM megestrol acetate, 20 pmol CYP3A4
CYP3A4, sequence (P08684 2-503 limits assumed): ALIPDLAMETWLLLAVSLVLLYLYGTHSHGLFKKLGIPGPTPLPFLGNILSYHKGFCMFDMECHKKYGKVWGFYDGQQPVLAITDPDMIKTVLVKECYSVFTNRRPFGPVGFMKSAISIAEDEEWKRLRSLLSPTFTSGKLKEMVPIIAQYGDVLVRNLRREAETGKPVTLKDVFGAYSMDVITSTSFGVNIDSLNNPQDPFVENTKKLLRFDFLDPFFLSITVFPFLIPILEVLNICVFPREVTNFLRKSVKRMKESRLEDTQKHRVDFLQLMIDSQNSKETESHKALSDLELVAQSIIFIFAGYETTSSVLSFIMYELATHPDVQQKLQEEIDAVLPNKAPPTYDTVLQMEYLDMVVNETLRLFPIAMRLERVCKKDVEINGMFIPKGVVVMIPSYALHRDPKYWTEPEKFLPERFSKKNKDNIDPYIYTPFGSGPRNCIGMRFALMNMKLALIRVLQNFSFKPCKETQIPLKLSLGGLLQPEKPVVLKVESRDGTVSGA

CYP2B6 [4] = biological target: T3, CYP2B6 (Homo sapiens, UniProt P20813); settings: 50 μM megestrol acetate, microsomes, CYP2B6 inhibitor
T3 sequence (P20813 1-491): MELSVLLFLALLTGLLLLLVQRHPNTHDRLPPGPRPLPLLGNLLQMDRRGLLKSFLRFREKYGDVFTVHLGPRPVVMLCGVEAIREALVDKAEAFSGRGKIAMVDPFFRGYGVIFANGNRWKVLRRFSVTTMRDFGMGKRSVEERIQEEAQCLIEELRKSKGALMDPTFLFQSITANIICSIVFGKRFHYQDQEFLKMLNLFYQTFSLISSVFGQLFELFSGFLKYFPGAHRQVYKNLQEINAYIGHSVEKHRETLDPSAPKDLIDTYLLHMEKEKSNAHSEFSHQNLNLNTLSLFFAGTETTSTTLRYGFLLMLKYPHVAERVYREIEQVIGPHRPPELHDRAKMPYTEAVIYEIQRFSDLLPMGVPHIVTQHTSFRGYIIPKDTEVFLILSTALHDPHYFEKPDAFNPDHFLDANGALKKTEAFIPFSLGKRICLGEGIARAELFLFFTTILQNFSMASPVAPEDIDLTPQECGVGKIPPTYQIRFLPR

CYP1A2 [5] = biological target: T1, CYP1A2
Protocol: as §1, §7, §2, §3, §4, §5, §6

CYP2C8 [6] = test system: CYP2C8
CYP2C19 [7] = biological target: T2, CYP2C19; assay type: in vitro ADME; settings: 50 μM megestrol acetate, microsomes
CYP2C8 [8] = biological target: T4, CYP2C8 (Homo sapiens, UniProt P10632); assay type: in vitro ADME; parameters: purchased BD Biosciences Discovery Labware, Woburn, Mass; host or cells: baculovirus-infected insect cells; settings: 50 μM megestrol acetate, 20 pmol CYP2C8
T4 sequence (P10632 1-490): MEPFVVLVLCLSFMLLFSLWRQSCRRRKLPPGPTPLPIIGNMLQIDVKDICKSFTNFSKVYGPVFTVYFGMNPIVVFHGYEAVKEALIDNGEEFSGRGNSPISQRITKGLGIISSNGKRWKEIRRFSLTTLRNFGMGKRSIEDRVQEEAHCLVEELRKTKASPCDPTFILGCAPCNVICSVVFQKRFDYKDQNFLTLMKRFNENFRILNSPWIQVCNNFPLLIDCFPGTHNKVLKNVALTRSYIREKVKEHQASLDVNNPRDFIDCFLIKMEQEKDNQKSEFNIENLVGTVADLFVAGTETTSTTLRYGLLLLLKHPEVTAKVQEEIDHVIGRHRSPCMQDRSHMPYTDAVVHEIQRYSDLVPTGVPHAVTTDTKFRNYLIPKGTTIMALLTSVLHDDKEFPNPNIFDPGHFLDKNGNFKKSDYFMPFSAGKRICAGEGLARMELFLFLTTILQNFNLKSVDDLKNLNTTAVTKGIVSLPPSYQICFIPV

CYP1A2 [9] = biological target: T1, CYP1A2; assay type: in vitro ADME; parameters: purchased BD Biosciences Discovery Labware, Woburn, Mass; host or cells: baculovirus-infected insect cells; settings: 50 μM megestrol acetate, 20 pmol CYP1A2
CYP2B6 [10] = biological target: T3, CYP2B6; assay type: in vitro ADME; parameters: purchased BD Biosciences Discovery Labware, Woburn, Mass; host or cells: baculovirus-infected insect cells; settings: 50 μM megestrol acetate, 20 pmol CYP2B6
CYP2E1 = CYP2E1 (Homo sapiens, UniProt P05181); assay type: in vitro ADME; parameters: purchased BD Biosciences Discovery Labware, Woburn, Mass; host or cells: baculovirus-infected insect cells; settings: 50 μM megestrol acetate, 20 pmol CYP2E1
CYP2E1, sequence (P05181 whole entry): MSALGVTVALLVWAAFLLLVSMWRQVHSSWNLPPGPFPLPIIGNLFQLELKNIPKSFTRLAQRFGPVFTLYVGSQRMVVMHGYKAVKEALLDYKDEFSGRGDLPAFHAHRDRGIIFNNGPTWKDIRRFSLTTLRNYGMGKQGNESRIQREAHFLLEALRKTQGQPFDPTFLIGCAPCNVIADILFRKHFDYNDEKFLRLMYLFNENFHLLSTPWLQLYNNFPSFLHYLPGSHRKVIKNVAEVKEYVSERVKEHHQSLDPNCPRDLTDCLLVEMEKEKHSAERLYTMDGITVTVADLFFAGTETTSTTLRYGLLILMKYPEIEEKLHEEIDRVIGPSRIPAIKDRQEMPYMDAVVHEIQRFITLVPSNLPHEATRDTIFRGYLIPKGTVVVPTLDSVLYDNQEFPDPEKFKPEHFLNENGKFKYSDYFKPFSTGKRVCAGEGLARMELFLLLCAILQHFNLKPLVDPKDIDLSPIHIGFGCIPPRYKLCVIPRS

CYP2A6 = settings: 50 μM megestrol acetate, microsomes, tranylcypromine
[11] = human, microsomes, 60 min, pH 7.4

With `CC(=O)O[C@]1(C(C)=O)CC[C@H]2[C@@H]3C=C(C)C4=CC(=O)CC[C@]4(C)[C@H]3CC[C@@]21C` [Megestrol Acetate, 17 α-acetyloxy-6-methylpregna-4,6-diene-3,20-dione] the “difference in metabolism in the presence or absence of the inhibitor (LC/MS)” value (“difference … of the inhibitor (LC/MS)” for short) (CYP1A2 [1]) was “no significant difference in metabolism”, the “percent metabolized in presence vs absence of inhibitor (unpaired two-tailed t-test)” value (CYP2D6) was “not different from the percentage of megestrol acetate metabolized in the absence of the inhibitor” and the “metabolized in pooled human liver microsomes” value (CYP2D6; [11]) was > 20%. For the same compound, the “percent metabolized in presence vs absence of inhibitor (unpaired two-tailed t-test)” value (CYP2C19 [2]) was “not different from the percentage of megestrol acetate metabolized in the absence of the inhibitor”, the “metabolized in pooled human liver microsomes” value (CYP2C19 [2]; [11]) was > 20% and the metabolites detected (CYP2C19 [3]) was 1.14%. The “metabolism of megestrol acetate by mass spectrometric methods” value (CYP3A4) was “More than 50%”, the “difference … of the inhibitor (LC/MS)” value (CYP2B6 [4]) was “no significant difference in metabolism” and the “percent metabolized in presence vs absence of inhibitor (unpaired two-tailed t-test)” value (CYP1A2 [5]) was “does not differ from the percentage of megestrol acetate metabolized in the absence of the inhibitor”. The “metabolized in pooled human liver microsomes” value (CYP1A2 [5]; [11]) was > 20%, the “percent metabolized in presence vs absence of inhibitor (unpaired two-tailed t-test)” value (CYP2C8 [6]) was “less than that of the percentage of megestrol acetate metabolized in the absence of the inhibitor” and the “Percent of Parent Disappearance Individual” value (CYP2C8 [6]; 50 μM (with 100 μM Quercetin)) was 7.51%. For the same compound, the “metabolized in pooled human liver microsomes” value (CYP2C8 [6]; [11]) was > 20%, the “difference … of the inhibitor (LC/MS)” value (CYP2C19 [7]) was “no significant difference in metabolism” and the “megestrol acetate converted to its metabolites” value (CYP2C8 [8]) was 0.72%. For the same compound, the “metabolism based on analysis of metabolites formed” value (CYP1A2 [9]) was < 1%, the metabolites observed (CYP2B6 [10]) was 1.23% and the metabolites formed (CYP2E1) was “no metabolites were detected”. For the same compound, the “difference … of the inhibitor (LC/MS)” value (CYP2A6) was “a slight difference in metabolism”.
